Measured values as given in patent US4755514A, “Phenylpyrazine derivatives and thrombolytic agent” (Suntory Limited, priority 1985, dated 1988).

Tests used:
[1] = tested on: pulmonary embolism induced by adenosine-5'-diphosphate sodium salt (ADP 2Na); assay: prevention of pulmonary embolic death in mice (ADP 2Na injection); type: in vivo, Male ddY mice; conditions: 300 mg/kg peroral; for Number of animals dying within 3 minutes after injection/Number of animals in test, ADP 2Na: 3 h before 30 mg/kg ADP 2Na i.v., control: 6/6 died; for thrombolytic effects compared with Ticlopidine: from Table 1 (ADP 2Na and collagen), mice
[2] = tested on: pulmonary embolism induced by collagen; assay: prevention of pulmonary embolic death in mice (collagen injection); type: in vivo, Male ddY mice; conditions: 300 mg/kg peroral, 3 h before collagen i.v.; control: 6/6 died
Description: The following tests were conducted to evaluate the effect of the claimed compounds in the prevention of pulmonary embolic death in mice.
Each of the compounds being tested was suspended in 0.5% carboxymethyl cellulose and administered perorally at a dosage of 300 mg/kg (0.1 ml/10 g body weight).
Male ddY mice weighing 18-20 g were subjected to the test after being starved overnight.
Three hours after oral administration of a selected test compound to the mice, 30 mg/kg of adenosine-5'-diphosphate sodium salt (Sigma Chemical Co., Grade IX) or collagen was injected through their tail veins. The number of mice which died of pulmonary embolism within 3 minutes after the intravenous injections was counted.
The adenosine-5'-diphosphate sodium salt (ADP 2Na) was in the form of a solution in physiological saline at a concentration of 300 mg/10 ml. The collagen was administered in the form of a solution which was prepared by the following procedure: 25 mg of collagen was uniformly sonicated in a solution containing 25 mmol of tris-HCl and 130 mmol of sodium chloride (pH: 7.3), and the resultant dispersion was incubated at 37° C. for 45 minutes to form a polymer (after incubation, the collagen solution was kept in ice-water until it was used).
As a control, 0.5% carboxymethyl cellulose (10 ml/kg) was administered through tail veins.

[3] = tested on: mice; design: species or system ddY male mice; conditions: mouse, in vivo
Description: The following acute toxicity test was conducted on mice:
Animal: Five-week old ddY male mice (wt: 21-27 g) in groups of 6.
Method: The mice were starved overnight and the compound prepared in Example 6 was administered perorally in an amount of 0.1 ml/10 g body weight after it was suspended in 0.5% carboxymethyl cellulose sodium salt (CMC-Na). As a control, 0.5% CMC-Na solution was administered.

In the case of `Clc1cccc(-c2cnccn2)c1` [Example 4, 2-(3-chlorophenyl)pyrazine], the “Number of animals dying within 3 minutes after injection/Number of animals in test, ADP 2Na” value [1] is reported as 5/10 and the “Number of animals dying within 3 minutes after injection/Number of animals in test, Collagen” value [2] is reported as 6/10.
`COc1ccc(-c2cnccn2)cc1` [Example 3, 2-(4-methoxyphenyl)pyrazine] was tested, and the “Number of animals dying within 3 minutes after injection/Number of animals in test, ADP 2Na” value [1] was 4/7 and the “Number of animals dying within 3 minutes after injection/Number of animals in test, Collagen” value [2] was 6/8.
`Clc1ccc(-c2cnccn2)c(Cl)c1` [Example 5, 2-(2,4-dichlorophenyl)pyrazine] was tested, and the “Number of animals dying within 3 minutes after injection/Number of animals in test, ADP 2Na” value [1] was 6/10 and the “Number of animals dying within 3 minutes after injection/Number of animals in test, Collagen” value [2] was 4/10.
In the case of `Clc1ccc(-c2cnccn2)cc1` [Example 1, 2-(4-chlorophenyl)pyrazine], the “Number of animals dying within 3 minutes after injection/Number of animals in test, ADP 2Na” value [1] is reported as 4/9, the “thrombolytic effects compared with Ticlopidine” value [1] is reported as “equal to or greater than the levels achieved by a known thrombolytic agent, Ticlopidine” and the “Number of animals dying within 3 minutes after injection/Number of animals in test, Collagen” value [2] is reported as 2/8.
In the case of `Clc1ccccc1-c1cnccn1` [Example 7, 2-(2-chlorophenyl)pyrazine], the “Number of animals dying within 3 minutes after injection/Number of animals in test, ADP 2Na” value [1] is reported as 5/10 and the “Number of animals dying within 3 minutes after injection/Number of animals in test, Collagen” value [2] is reported as 6/9.
For `Clc1ccc(-c2cnccn2)cc1Cl` [Example 6, 2-(3,4-dichlorophenyl)pyrazine], the “animals that died at the dosage levels used” value [3] was “none of the animals treated with the compound of Example 6 died”, the “changes in the general condition of the mice” value [3] was “No apparent changes were observed” and the “Number of animals dying within 3 minutes after injection/Number of animals in test, ADP 2Na” value [1] was 3/10. For the same compound, the “thrombolytic effects compared with Ticlopidine” value [1] was “equal to or greater than the levels achieved by a known thrombolytic agent, Ticlopidine” and the “Number of animals dying within 3 minutes after injection/Number of animals in test, Collagen” value [2] was 4/10.
For `Oc1ccc(-c2cnccn2)cc1` [Example 8, 2-(4-hydroxyphenyl)pyrazine], the “Number of animals dying within 3 minutes after injection/Number of animals in test, ADP 2Na” value [1] was 4/7 and the “Number of animals dying within 3 minutes after injection/Number of animals in test, Collagen” value [2] was 7/8.
With `Cc1ccc(-c2cnccn2)cc1` [Example 2, 2-(4-methylphenyl)pyrazine] the “Number of animals dying within 3 minutes after injection/Number of animals in test, ADP 2Na” value [1] was 3/7 and the “Number of animals dying within 3 minutes after injection/Number of animals in test, Collagen” value [2] was 7/8.
